Usually IC50 stands for the concentration at which inhibition is half-maximal.

A short description of data set [1]: Nephrotoxicity in Balb/c mouse infected with Trypanosoma cruzi MHOM/Pe/2011/Arequipa DTU 5 trypomastigotes assessed as decrease in serum uric acid level at 20 mg/kg, po once daily for 5 consecutive days starting from day 75 post infection measured on day 127 post infection relative to control. Format: toxicity, organism-based. To be noted: in vivo. On the set-up: scale not given: the % may be the effect or the level left.

Data set [2] in a line: Hepatotoxicity in Balb/c mouse infected with Trypanosoma cruzi MHOM/Pe/2011/Arequipa DTU 5 trypomastigotes assessed as change in alkaline phosphatase level at 20 mg/kg, po once daily for 5 consecutive days starting from day 10 post infection measured on day 127 post infection by biochemical analysis (reference value: 161 U/L). Format: toxicity, organism-based. To be noted: in vivo.

Data set [3] is described as follows: Hepatotoxicity in Balb/c mouse infected with Trypanosoma cruzi MHOM/Pe/2011/Arequipa DTU 5 trypomastigotes assessed as change in ratio of serum ALT to GPT level at 20 mg/kg, po once daily for 5 consecutive days starting from day 10 post infection measured on day 127 post infection by biochemical analysis (reference value: 49 U/L). Format: toxicity, organism-based. As to conditions: in vivo.

Data set [4] in a line: Cardiotoxicity in Balb/c mouse infected with Trypanosoma cruzi MHOM/Pe/2011/Arequipa DTU 5 trypomastigotes assessed as change in ratio of creatine kinase in muscle to brain at 20 mg/kg, po once daily for 5 consecutive days starting from day 10 post infection measured on day 16 post infection by biochemical analysis (reference value: 535 U/L). In kind it is toxicity, organism-based. As to conditions: in vivo.

Data set [5] can be described thus: Hepatotoxicity in Balb/c mouse infected with Trypanosoma cruzi MHOM/Pe/2011/Arequipa DTU 5 trypomastigotes assessed as increase in ratio of serum AST to GOT level at 20 mg/kg, po once daily for 5 consecutive days starting from day 10 post infection measured on day 16 post infection relative to control. In kind it is toxicity, organism-based. To be noted: in vivo.

Data set [6] can be described thus: Cardiotoxicity in Balb/c mouse infected with Trypanosoma cruzi MHOM/Pe/2011/Arequipa DTU 5 trypomastigotes assessed as decrease in ratio of creatine kinase in muscle to brain at 20 mg/kg, po once daily for 5 consecutive days starting from day 75 post infection measured on day 81 post infection relative to control. In kind it is toxicity, organism-based. The arrangement: scale not given: the % may be the effect or the level left. To be noted: in vivo.

Data set [7] in a line: Hepatotoxicity in Balb/c mouse infected with Trypanosoma cruzi MHOM/Pe/2011/Arequipa DTU 5 trypomastigotes assessed as change in ratio of serum ALT to GPT level at 20 mg/kg, po once daily for 5 consecutive days starting from day 75 post infection measured on day 127 post infection (reference value: 64 U/L). Format: toxicity, organism-based. To be noted: in vivo.
A short description of data set [8]: Cardiotoxicity in Balb/c mouse infected with Trypanosoma cruzi MHOM/Pe/2011/Arequipa DTU 5 trypomastigotes assessed as change in serum LDH level at 20 mg/kg, po once daily for 5 consecutive days starting from day 10 post infection measured on day 16 post infection by biochemical analysis (reference value: 3275 U/L). Format: toxicity, organism-based. To be noted: in vivo.

The nature of data set [9]: Hepatotoxicity in Balb/c mouse infected with Trypanosoma cruzi MHOM/Pe/2011/Arequipa DTU 5 trypomastigotes assessed as increase in alkaline phosphatase level at 20 mg/kg, po once daily for 5 consecutive days starting from day 75 post infection measured on day 81 post infection relative to control. In kind it is toxicity, organism-based. To be noted: in vivo.
Data set [10] can be described thus: Selectivity index, ratio of IC50 for African green monkey Vero cells to IC50 for Trypanosoma cruzi IRHOD/CO/2008/SN3 DTU 1 amastigotes infected in African green monkey Vero cells. In kind it is toxicity. As to conditions: read-out: Ratio IC50.
Data set [11] is described as follows: Nephrotoxicity in Balb/c mouse infected with Trypanosoma cruzi MHOM/Pe/2011/Arequipa DTU 5 trypomastigotes assessed as change in serum urea level at 20 mg/kg, po once daily for 5 consecutive days starting from day 10 post infection measured on day 127 post infection (reference value: 31 mg/dl). As to conditions: in vivo. Format: toxicity, organism-based.
In data set [12] the test system is Trypanosoma cruzi. The data set is described as follows: Trypanocidal activity against Trypanosoma cruzi TINF/CH/1956/Tulahuen DTU 6 epimastigotes after 48 to 72 hrs by resazurin dye based assay. Format: functional, organism-based. Background: Alamar Blue is a resazurin reagent that responds to reducing activity.
Data set [13] relates to Trypanosoma cruzi. Kind of data set: Trypanocidal activity against Trypanosoma cruzi IRHOD/CO/2008/SN3 DTU 1 epimastigotes after 48 to 72 hrs by resazurin dye based assay. Format: functional, organism-based.
Data set [14] in a line: Inhibition of Trypanosoma cruzi MHOM/Pe/2011/Arequipa DTU 5 epimastigotes Fe-SOD by UV-Visible spectrophotometric method.
For data set [15], the system named is Trypanosoma cruzi. Kind of data set: Antitrypanosomal activity against Trypanosoma cruzi MHOM/Pe/2011/Arequipa DTU 5 trypomastigotes infected in Balb/c mouse assessed as reduction in Ig-G level in serum at 20 mg/kg, po pretreated once daily for 5 consecutive days starting from day 75 post infection followed by cyclophosphamide-induced immunosuppression on day 100 post infection every 4 days for a maximum of 3 doses measured on day 127 post infection by ELISA. Format: functional, organism-based. For orientation: An ELISA detects its analyte on a solid surface through an enzyme-linked reagent.

Data set [16] deals with Trypanosoma cruzi. The data set is described as follows: Antitrypanosomal activity against Trypanosoma cruzi MHOM/Pe/2011/Arequipa DTU 5 trypomastigotes infected in Balb/c mouse assessed as reduction in Ig-G level in serum at 20 mg/kg, po once daily for 5 consecutive days starting from day 75 post infection measured on day 81 post infection by ELISA. In kind it is functional, organism-based.

In data set [17] the test system is Trypanosoma cruzi. Kind of data set: Trypanocidal activity against Trypanosoma cruzi MHOM/Pe/2011/Arequipa DTU 5 amastigotes infected in African green monkey Vero cells assessed as reduction in number of amastigotes per infected cells at log -0.41 to 1.7 after 72 hrs by Giemsa-staining based assay. Format: functional, organism-based.
In data set [18] the test system is Trypanosoma cruzi. The data set is described as follows: Trypanocidal activity against Trypanosoma cruzi IRHOD/CO/2008/SN3 DTU 1 amastigotes infected in African green monkey Vero cells after 72 hrs by Giemsa-staining based microscopic assay. To be noted: IRHOD/CO/2008/SN3 DTU 1, Vero. Format: functional, organism-based.
Data set [19] concerns Trypanosoma cruzi. Kind of data set: Trypanocidal activity against Trypanosoma cruzi TINF/CH/1956/Tulahuen DTU 6 amastigotes infected in African green monkey Vero cells after 72 hrs by Giemsa-staining based microscopic assay. As to conditions: TINF/CH/1956/Tulahuen DTU 6, Vero. In kind it is functional, organism-based.
Data set [20] has as its system Trypanosoma cruzi. The data set is described as follows: Antitrypanosomal activity against Trypanosoma cruzi MHOM/Pe/2011/Arequipa DTU 5 epimastigotes assessed as effect on parasite glycolytic pathway by measuring decrease in pyruvate excretion at IC25 after 72 hrs by 1H NMR method. Format: functional, organism-based.
A short description of data set [21]: Selectivity index, ratio of IC50 for African green monkey Vero cells to IC50 for Trypanosoma cruzi MHOM/Pe/2011/Arequipa DTU 5 epimastigotes. To be noted: read-out: Ratio IC50. Format: toxicity.
Data set [22] is described as follows: Toxicity in Balb/c mouse assessed as reduction in body mass at 20 mg/kg, po once daily for 5 consecutive days starting from day 75 post infection relative to control. On the set-up: scale not given: the % may be the effect or the level left. As to conditions: in vivo. Format: organism-based.
Data set [23] relates to Trypanosoma cruzi. Kind of data set: Antitrypanosomal activity against Trypanosoma cruzi MHOM/Pe/2011/Arequipa DTU 5 epimastigotes assessed as effect on parasite glycolytic pathway by measuring decrease in acetate excretion at IC25 after 72 hrs by 1H NMR method. In kind it is functional, organism-based.
Data set [24] can be described thus: Selectivity index, ratio of IC50 for African green monkey Vero cells to IC50 for Trypanosoma cruzi IRHOD/CO/2008/SN3 DTU 1 trypomastigotes derived from infected Balb/c albino mouse. Format: toxicity. As to conditions: read-out: Ratio IC50.
Data set [25] deals with Trypanosoma cruzi. The data set is described as follows: Trypanocidal activity against Trypanosoma cruzi MHOM/Pe/2011/Arequipa DTU 5 amastigotes infected in African green monkey Vero cells assessed as reduction in infected cells after 72 hrs by Giemsa-staining based assay. Format: functional, organism-based. To be noted: MHOM/Pe/2011/Arequipa DTU 5, Vero.
Data set [26] concerns Trypanosoma cruzi. The data set is described as follows: Antitrypanosomal activity against Trypanosoma cruzi MHOM/Pe/2011/Arequipa DTU 5 trypomastigotes infected in Balb/c mouse assessed as reduction in Ig-G level in serum at 20 mg/kg, po once daily for 5 consecutive days starting from day 10 post infection measured on day 16 post infection by ELISA. Format: functional, organism-based.

Activity calls are given as the source filed them. The rule behind the calls is not given here. Bounds are passed on as bounds.

As to `O=C(Cn1ccnc1[N+](=O)[O-])NCc1ccccc1` [BENZNIDAZOLE], the Activity result in [1] was “<= 10%”; in [2], 161 U/L; in [3], 49 U/L; in [4] it was 535 U/L; in data set [5], above 40%; in data set [6], “<= 10%”. Further, the Activity is reported as 64 U/L in data set [7], 3275 U/L in data set [8] and above 40% in data set [9].

Take `Cl.Cl.Cl.NCCN(CCN)CCNCc1ccc2c(c1)Cc1ccccc1-2`: the Activity entry in [1] is “<= 10%”; in data set [11], 34 mg/dL; in data set [3], 49 U/L; in [5], above 40%; in data set [6] it was “<= 10%”; in data set [7] it was 64 U/L. The Activity in data set [22] is on record as below 10%. For the same molecule, the results for the selectivity ratio in data set [10], in data set [21] and in data set [24] were 89.6, 66.3 and 142, respectively. The concentration for half-maximal inhibition (IC50) is 30.7 µM with Trypanosoma cruzi [12]; 19.3 µM in the data set with Trypanosoma cruzi [13]; 56.9 µM in data set [14]; 19.7 µM in the data set with Trypanosoma cruzi [18]; 15.1 µM in the data set with Trypanosoma cruzi [19]; 8 µM in the data set with Trypanosoma cruzi [25]. In addition, the outcome in the data set with Trypanosoma cruzi [15], with Trypanosoma cruzi [17], in the data set with Trypanosoma cruzi [20], in the data set on Trypanosoma cruzi [23] and in the data set on Trypanosoma cruzi [26] was Active. Further, the outcome with Trypanosoma cruzi [16] was inactive.

As for `Cl.Cl.Cl.Cl.Cl.Cl.c1ccc2nc(CNCCN(CCNCc3ccc4ccccc4n3)CCNCc3ccc4ccccc4n3)ccc2c1`, the selectivity ratio in data set [10] stood at 1020; in [21] it was 110; in data set [24], 1560. Also, the Activity was 34 mg/dL in [11]; 161 U/L in data set [2]; 535 U/L in data set [4]; 3275 U/L in data set [8]; “<= 20%” in [9]; below 10% in data set [22]. Also, the half-inhibitory concentration (IC50) came to 19.5 µM in the data set on Trypanosoma cruzi [12]; 14 µM with Trypanosoma cruzi [13]; 29 µM in [14]; 1.6 µM in the data set with Trypanosoma cruzi [18]; 2.3 µM in the data set on Trypanosoma cruzi [19]; 3.6 µM in the data set on Trypanosoma cruzi [25]. Further, the outcome in the data set with Trypanosoma cruzi [15], in the data set on Trypanosoma cruzi [16] and with Trypanosoma cruzi [26] was inactive. For the same molecule, the result with Trypanosoma cruzi [17], with Trypanosoma cruzi [20] and in the data set with Trypanosoma cruzi [23] was Active.

These data come from ChEMBL document CHEMBL4411300 (Eur J Med Chem, 2019).
